From ChEMBL document CHEMBL1250439, “2-phenyl-1-[4-(2-piperidine-1-yl-ethoxy)benzyl]-1H-benzimidazoles as ligands for the estrogen receptor: synthesis and pharmacological evaluation” (Bioorg Med Chem, 2010)
The source made the active and inactive calls. The rule behind the calls is not given here.

Assays:
MCF7 [1] = experiment: Cytostatic activity against human MCF7 cells at 5 uM after 3 days by microtiter assay; type: functional
MDA-MB-231 = experiment: Cytostatic activity against human MDA-MB-231 cells after 3 days by microtiter assay; type: functional, cell-based
MCF7 [2] = experiment: Cytostatic activity against human MCF7 cells at 10 uM after 3 days by microtiter assay; type: functional
Calf thymus DNA = experiment: Binding affinity to calf thymus DNA assessed as change in melting temperature; type: nucleic-acid assay; details: Bos taurus
Estrogen receptor [3] = target: T1, Estrogen receptor (Homo sapiens, UniProt P03372); experiment: Antagonist activity at human ERalpha expressed in human MCF7 cells at 10 uM by luciferase reporter gene assay; type: functional, cell-based
T1 sequence (P03372 whole entry): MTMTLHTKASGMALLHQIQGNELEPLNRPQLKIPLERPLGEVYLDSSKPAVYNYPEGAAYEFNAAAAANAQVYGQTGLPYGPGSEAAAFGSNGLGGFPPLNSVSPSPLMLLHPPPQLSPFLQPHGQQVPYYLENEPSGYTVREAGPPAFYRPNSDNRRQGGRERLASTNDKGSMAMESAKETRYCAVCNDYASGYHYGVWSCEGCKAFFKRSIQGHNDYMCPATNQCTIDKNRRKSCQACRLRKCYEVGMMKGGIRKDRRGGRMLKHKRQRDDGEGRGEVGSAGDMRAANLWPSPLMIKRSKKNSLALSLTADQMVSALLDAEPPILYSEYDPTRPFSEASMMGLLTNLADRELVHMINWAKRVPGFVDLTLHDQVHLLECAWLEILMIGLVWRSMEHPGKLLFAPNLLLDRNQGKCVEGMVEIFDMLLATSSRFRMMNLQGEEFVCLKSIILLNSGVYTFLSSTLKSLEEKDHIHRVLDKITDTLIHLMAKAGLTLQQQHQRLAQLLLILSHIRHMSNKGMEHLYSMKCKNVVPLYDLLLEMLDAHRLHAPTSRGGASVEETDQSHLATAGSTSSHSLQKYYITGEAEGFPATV

MCF7 [4] = experiment: Cytostatic activity against human MCF7 cells at 1 uM after 3 days by microtiter assay; type: functional
Adenosine receptor A1 = target: T2, Adenosine receptor A1 (Rattus norvegicus, UniProt P25099); experiment: Displacement of [3H]CCPA from adenosine A1 receptor in rat brain cortical membrane; type: cell membranes
T2 sequence (P25099 whole entry): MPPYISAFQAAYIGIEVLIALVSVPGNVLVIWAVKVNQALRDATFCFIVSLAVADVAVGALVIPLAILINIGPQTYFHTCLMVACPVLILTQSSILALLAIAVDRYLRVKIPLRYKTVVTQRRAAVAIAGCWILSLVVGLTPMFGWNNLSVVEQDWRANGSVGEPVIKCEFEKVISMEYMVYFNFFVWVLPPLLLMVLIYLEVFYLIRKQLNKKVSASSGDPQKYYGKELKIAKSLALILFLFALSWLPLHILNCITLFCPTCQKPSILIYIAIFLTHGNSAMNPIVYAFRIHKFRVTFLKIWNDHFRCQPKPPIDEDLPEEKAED

Estrogen receptor [5] = target: T1, Estrogen receptor; experiment: Antagonist activity at human ERalpha expressed in human MCF7 cells by luciferase reporter gene assay; type: functional, cell-based
[6] = target: T3, Estrogen receptor (Homo sapiens) (UniProt P03372); experiment: Displacement of [3H]E2 from human estrogen receptor alpha relative to control
T3 sequence (whole entry): T1 sequence (P03372 whole entry)

[7] = target: Estrogen receptor beta (Homo sapiens) (UniProt Q92731); experiment: Displacement of [3H]E2 from human estrogen receptor beta relative to control
Chain of Estrogen receptor beta (Homo sapiens) (Q92731 whole entry): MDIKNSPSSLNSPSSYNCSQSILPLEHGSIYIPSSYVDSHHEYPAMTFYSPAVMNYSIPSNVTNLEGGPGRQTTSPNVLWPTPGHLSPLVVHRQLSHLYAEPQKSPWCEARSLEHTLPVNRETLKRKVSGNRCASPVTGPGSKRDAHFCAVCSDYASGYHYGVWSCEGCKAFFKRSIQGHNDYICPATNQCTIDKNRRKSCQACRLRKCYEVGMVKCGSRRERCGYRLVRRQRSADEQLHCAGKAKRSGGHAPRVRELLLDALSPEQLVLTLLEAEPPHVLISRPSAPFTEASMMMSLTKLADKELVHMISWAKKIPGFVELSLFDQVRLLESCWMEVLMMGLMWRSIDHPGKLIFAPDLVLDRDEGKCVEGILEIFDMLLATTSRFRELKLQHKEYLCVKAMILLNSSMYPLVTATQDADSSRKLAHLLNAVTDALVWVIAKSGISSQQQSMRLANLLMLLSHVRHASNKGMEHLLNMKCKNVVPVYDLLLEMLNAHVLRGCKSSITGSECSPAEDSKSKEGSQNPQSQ

| SMILES | T/C (MCF7 [1]) | Activity (MDA-MB-231) | Activity (MCF7 [2]) | ΔTm (Calf thymus DNA) | T/C (MCF7 [4]) | T/C (MCF7 [2]) | also measured |
| --- | --- | --- | --- | --- | --- | --- | --- |
| CC/C(=C(\c1ccccc1)c1ccc(OCCN(C)C)cc1)c1ccccc1 [TAMOXIFEN] | 0% | Active | inactive | – | – | – | – |
| Oc1ccc(-c2nc3ccccc3n2Cc2ccc(OCCN3CCCCC3)cc2)cc1 | 0% | – | – | 3 °C | 50% | <0% | IC50 (Estrogen receptor [3]): 5.1 µM |
| O=C(c1ccc(OCCN2CCCCC2)cc1)c1c(-c2ccc(O)cc2)sc2cc(O)ccc12 [RALOXIFENE] | 0% | Active | inactive | – | – | – | – |
| Oc1ccc(-c2nc3ccc(O)cc3n2Cc2ccc(OCCN3CCCCC3)cc2)cc1 | – | – | – | 3 °C | – | – | Ki (Adenosine receptor A1): ≤ 3.7 µM |
| Oc1ccc(-c2nc3cc(O)ccc3n2Cc2ccc(OCCN3CCCCC3)cc2)cc1 | – | – | – | 3 °C | – | – | Ki (Adenosine receptor A1): 3.7 µM |
| CCC(=C(c1ccc(O)cc1)c1ccc(OCCN(C)C)cc1)c1ccccc1 | 0% | Active | inactive | – | – | – | – |
| Oc1ccc2nc(-c3ccccc3)n(Cc3ccc(OCCN4CCCCC4)cc3)c2c1 | 0% | – | – | 3 °C | 50% | <0% | IC50 (Estrogen receptor [5]): 0.31 µM |
| Oc1ccc2c(c1)nc(-c1ccccc1)n2Cc1ccc(OCCN2CCCCC2)cc1 | 0% | – | – | 3 °C | 50% | <0% | RBA [6]: 0.43%; RBA [7]: 0.54% |
